From paper PMC5218480 (PLoS ONE, 2017)

Tested on: MV-4-11 cells
Assay: Gene expression microarray analysis (Affymetrix PrimeView) and GSEA
Type: cell-based, human
Parameters: RFU PODN (11730768_x_at) / Fold change /veh PODN (11730768_x_at) / RFU LINC00158 (11744669_a_at) / Fold change /veh LINC00158 (11744669_a_at) / RFU DUSP10 (11751237_a_at) / Fold change /veh DUSP10 (11751237_a_at) / RFU ID3 (11757404_x_at) / Fold change /veh ID3 (11757404_x_at) / RFU PLEKHG5 (11737974_s_at) / Fold change /veh PLEKHG5 (11737974_s_at) / RFU LRRC4B (11730491_at) / Fold change /veh LRRC4B (11730491_at) / RFU GIMAP4 (11747438_a_at) / Fold change /veh GIMAP4 (11747438_a_at) / RFU KRT8 (11758183_x_at) / Fold change /veh KRT8 (11758183_x_at) / RFU CNN1 (11734310_a_at) / Fold change /veh CNN1 (11734310_a_at) / RFU VPS37D (11726825_at) / Fold change /veh VPS37D (11726825_at) / RFU C10orf10 (11716522_x_at) / Fold change /veh C10orf10 (11716522_x_at) / RFU KIR2DL2 /// KIR2DL4 /// KIR2DL5A /// KIR2DL5B /// KIR2DS1 /// KIR2DS2 /// KIR2DS3 /// KIR2DS4 /// KIR3DL3 /// KIR3DL3 /// KIR3DS1 (11738374_at) / Fold change /veh KIR2DL2 /// KIR2DL4 /// KIR2DL5A /// KIR2DL5B /// KIR2DS1 /// KIR2DS2 /// KIR2DS3 /// KIR2DS4 /// KIR3DL3 /// KIR3DL3 /// KIR3DS1 (11738374_at) / RFU C1QL1 (11718748_at) / Fold change /veh C1QL1 (11718748_at) / RFU TMPRSS4 (11747572_a_at) / Fold change /veh TMPRSS4 (11747572_a_at) / RFU HAMP (11756126_x_at) / Fold change /veh HAMP (11756126_x_at) / RFU RNFT2 (11725882_a_at) / Fold change /veh RNFT2 (11725882_a_at) / RFU NR4A2 (11747474_a_at) / Fold change /veh NR4A2 (11747474_a_at) / RFU ABCC12 (11746883_a_at) / Fold change /veh ABCC12 (11746883_a_at) / RFU TMEM136 (11760407_x_at) / Fold change /veh TMEM136 (11760407_x_at) / RFU CLDN22 /// WWC2 (11732394_at) / Fold change /veh CLDN22 /// WWC2 (11732394_at) / RFU HLA-DPB1 (11760878_x_at) / Fold change /veh HLA-DPB1 (11760878_x_at) / RFU SPINT1 (11716480_a_at) / Fold change /veh SPINT1 (11716480_a_at) / RFU GAP43 (11754022_s_at) / Fold change /veh GAP43 (11754022_s_at) / RFU A4GNT (11735810_at) / Fold change /veh A4GNT (11735810_at) / RFU PRB3 (11715151_x_at) / Fold change /veh PRB3 (11715151_x_at) / RFU TUBB4B (11761932_at) / Fold change /veh TUBB4B (11761932_at) / RFU CAPN14 (11732068_a_at) / Fold change /veh CAPN14 (11732068_a_at) / RFU TMCC2 (11721928_a_at) / Fold change /veh TMCC2 (11721928_a_at) / RFU IRGQ (11745062_a_at) / Fold change /veh IRGQ (11745062_a_at) / RFU FAM174B (11720279_a_at) / Fold change /veh FAM174B (11720279_a_at) / RFU TMPRSS4 (11748680_a_at) / Fold change /veh TMPRSS4 (11748680_a_at) / RFU FAM212B (11763350_a_at) / Fold change /veh FAM212B (11763350_a_at) / RFU PLEKHG5 (11743358_a_at) / Fold change /veh PLEKHG5 (11743358_a_at) / RFU ZSCAN30 (11745921_a_at) / Fold change /veh ZSCAN30 (11745921_a_at) / RFU CMKLR1 (11741424_a_at) / Fold change /veh CMKLR1 (11741424_a_at) / RFU LOC101060620 /// MAPK8IP1 (11723275_at) / Fold change /veh LOC101060620 /// MAPK8IP1 (11723275_at) / RFU SPTSSB (11747773_x_at) / Fold change /veh SPTSSB (11747773_x_at) / RFU PRSS12 (11739890_at) / Fold change /veh PRSS12 (11739890_at) / RFU BIN1 (11741810_x_at) / Fold change /veh BIN1 (11741810_x_at) / RFU WNT11 (11732464_a_at) / Fold change /veh WNT11 (11732464_a_at) / RFU C10orf10 (11716521_a_at) / Fold change /veh C10orf10 (11716521_a_at) / RFU C5orf56 (11738089_at) / Fold change /veh C5orf56 (11738089_at) / RFU CYB561 (11721691_x_at) / Fold change /veh CYB561 (11721691_x_at) / RFU ANKRD19P (11752326_a_at) / Fold change /veh ANKRD19P (11752326_a_at) / RFU OR2T12 /// OR2T33 /// OR2T8 (11738714_s_at) / Fold change /veh OR2T12 /// OR2T33 /// OR2T8 (11738714_s_at) / RFU VCAN (11748164_a_at) / Fold change /veh VCAN (11748164_a_at) / RFU JSRP1 (11732532_at) / Fold change /veh JSRP1 (11732532_at) / RFU KRTAP10-11 (11738290_x_at) / Fold change /veh KRTAP10-11 (11738290_x_at) / RFU MYO3A (11730013_a_at) / Fold change /veh MYO3A (11730013_a_at) / RFU EBF3 (11725865_a_at) / Fold change /veh EBF3 (11725865_a_at) / RFU CAMK2N1 (11719241_x_at) / Fold change /veh CAMK2N1 (11719241_x_at) / RFU C5orf56 (11738088_a_at) / Fold change /veh C5orf56 (11738088_a_at) / RFU OLFML3 (11715873_a_at) / Fold change /veh OLFML3 (11715873_a_at) / RFU LOC100653217 /// NTM (11731650_a_at) / Fold change /veh LOC100653217 /// NTM (11731650_a_at) / RFU MAPK11 (11762145_a_at) / Fold change /veh MAPK11 (11762145_a_at) / RFU FIZ1 (11724087_x_at) / Fold change /veh FIZ1 (11724087_x_at) / RFU OASL (11726364_x_at) / Fold change /veh OASL (11726364_x_at) / RFU SOX15 (11748057_x_at) / Fold change /veh SOX15 (11748057_x_at) / RFU CD79A (11719716_a_at) / Fold change /veh CD79A (11719716_a_at) / RFU HIST1H1D (11736915_at) / Fold change /veh HIST1H1D (11736915_at) / RFU CASKIN2 (11723855_a_at) / Fold change /veh CASKIN2 (11723855_a_at) / RFU LOC730098 (11760151_x_at) / Fold change /veh LOC730098 (11760151_x_at) / RFU OR4N2 (11742367_at) / Fold change /veh OR4N2 (11742367_at) / RFU PRRT2 (11749266_a_at) / Fold change /veh PRRT2 (11749266_a_at) / RFU SNX32 (11753110_a_at) / Fold change /veh SNX32 (11753110_a_at) / RFU CDHR5 (11726645_a_at) / Fold change /veh CDHR5 (11726645_a_at) / RFU RCAN1 (11760418_a_at) / Fold change /veh RCAN1 (11760418_a_at) / RFU FAM167A (11723789_a_at) / Fold change /veh FAM167A (11723789_a_at) / RFU FAM26E (11764081_at) / Fold change /veh FAM26E (11764081_at) / RFU ISYNA1 (11749810_s_at) / Fold change /veh ISYNA1 (11749810_s_at) / RFU ACY1 (11761880_at) / Fold change /veh ACY1 (11761880_at) / RFU 11764098_at / Fold change /veh 11764098_at / RFU SAMD14 (11745864_x_at) / Fold change /veh SAMD14 (11745864_x_at) / RFU NPB (11741838_a_at) / Fold change /veh NPB (11741838_a_at) / RFU TMPRSS6 (11731388_a_at) / Fold change /veh TMPRSS6 (11731388_a_at) / RFU KRTAP10-2 (11738614_at) / Fold change /veh KRTAP10-2 (11738614_at) / RFU ARHGAP8 /// PRR5-ARHGAP8 (11727945_x_at) / Fold change /veh ARHGAP8 /// PRR5-ARHGAP8 (11727945_x_at) / RFU KRTAP5-7 /// NADSYN1 (11734609_at) / Fold change /veh KRTAP5-7 /// NADSYN1 (11734609_at) / RFU RASL12 (11751679_a_at) / Fold change /veh RASL12 (11751679_a_at) / RFU CDKN2B (11736163_a_at) / Fold change /veh CDKN2B (11736163_a_at) / RFU PRF1 (11729649_at) / Fold change /veh PRF1 (11729649_at) / RFU, ZNF638 /// ZNF638-IT1 / Fold change vs veh, ZNF638 /// ZNF638-IT1 / RFU, PANK3 / Fold change vs veh, PANK3 / RFU, SH3YL1 / Fold change vs veh, SH3YL1 / RFU, ZEB2 / Fold change vs veh, ZEB2 / RFU, NRIP1 / Fold change vs veh, NRIP1 / RFU, PTTG1IP / Fold change vs veh, PTTG1IP / RFU, CAPN2 / Fold change vs veh, CAPN2 / RFU, MED14 / Fold change vs veh, MED14 / RFU, SNORA58 / Fold change vs veh, SNORA58 / RFU, C1orf63 / Fold change vs veh, C1orf63 / RFU, LRRFIP1 / Fold change vs veh, LRRFIP1 / RFU, NDUFAF7 / Fold change vs veh, NDUFAF7 / RFU, SLC12A2 / Fold change vs veh, SLC12A2 / RFU, IBTK / Fold change vs veh, IBTK / RFU, ESF1 / Fold change vs veh, ESF1 / Fold change vs veh, TMEM50B / RFU, TAOK1 / Fold change vs veh, TAOK1 / RFU, ACBD3 / Fold change vs veh, ACBD3 / RFU, TMA16 / Fold change vs veh, TMA16 / RFU, RWDD3 / Fold change vs veh, RWDD3 / RFU, BCAT1 / Fold change vs veh, BCAT1 / RFU, EDEM3 / Fold change vs veh, EDEM3 / RFU, TMEM33 / Fold change vs veh, TMEM33 / RFU, WDR75 / Fold change vs veh, WDR75 / RFU, AHCTF1 / Fold change vs veh, AHCTF1 / RFU, TFRC / Fold change vs veh, TFRC / RFU, ZDHHC17 / Fold change vs veh, ZDHHC17 / RFU, NOM1 / Fold change vs veh, NOM1 / RFU, ARL8B / Fold change vs veh, ARL8B / RFU, ZBTB11 / Fold change vs veh, ZBTB11 / RFU, TAMM41 / Fold change vs veh, TAMM41 / RFU, KIAA1704 /// LOC100996395 / Fold change vs veh, KIAA1704 /// LOC100996395 / RFU, ING1 / Fold change vs veh, ING1 / RFU, TRMT61B / Fold change vs veh, TRMT61B / RFU, FUBP3 / Fold change vs veh, FUBP3 / RFU, TP53 / Fold change vs veh, TP53 / RFU, TNKS2 / Fold change vs veh, TNKS2 / RFU, ZFP14 / Fold change vs veh, ZFP14 / RFU, ACTR2 / Fold change vs veh, ACTR2 / RFU, PPP3R1 / Fold change vs veh, PPP3R1 / RFU, PIK3R1 / Fold change vs veh, PIK3R1 / RFU, HNRNPA1 / Fold change vs veh, HNRNPA1 / RFU, RNF170 / Fold change vs veh, RNF170 / RFU, ZNF28 / Fold change vs veh, ZNF28 / RFU, RNGTT / Fold change vs veh, RNGTT / RFU, OGT / Fold change vs veh, OGT / RFU, BRD1 / Fold change vs veh, BRD1 / RFU, MARS / Fold change vs veh, MARS / RFU, ZNF655 / Fold change vs veh, ZNF655 / RFU, FAHD1 / Fold change vs veh, FAHD1 / RFU, BDP1 / Fold change vs veh, BDP1 / RFU, LRRCC1 / Fold change vs veh, LRRCC1 / RFU, ARID1A / Fold change vs veh, ARID1A / RFU, ZNF146 / Fold change vs veh, ZNF146 / RFU, ZNF330 / Fold change vs veh, ZNF330 / RFU, GPN3 / Fold change vs veh, GPN3 / RFU, C9orf123 / Fold change vs veh, C9orf123 / RFU, N4BP2L2 / Fold change vs veh, N4BP2L2 / RFU, ARFIP1 / Fold change vs veh, ARFIP1 / RFU, FAM179B / Fold change vs veh, FAM179B / RFU, BCL10 / Fold change vs veh, BCL10 / RFU, UHRF1BP1L / Fold change vs veh, UHRF1BP1L / RFU, BET1 / Fold change vs veh, BET1 / RFU, CNOT2 / Fold change vs veh, CNOT2 / RFU, ZNF268 / Fold change vs veh, ZNF268 / Fold change vs veh, ZNF507 / RFU, DGCR2 / Fold change vs veh, DGCR2 / RFU, WDSUB1 / Fold change vs veh, WDSUB1 / Fold change vs veh, HSP90B1 /// MIR3652 / RFU, ADSS / Fold change vs veh, ADSS / RFU, GK / Fold change vs veh, GK / RFU, ZNF148 / Fold change vs veh, ZNF148 / RFU, TAF9 / Fold change vs veh, TAF9 / RFU, SLC1A5 / Fold change vs veh, SLC1A5 / RFU, SLMO2 / Fold change vs veh, SLMO2 / RFU, ABCC4 / Fold change vs veh, ABCC4 / RFU, LOC101060439 /// RAP1B / Fold change vs veh, LOC101060439 /// RAP1B / RFU, RFX7 / Fold change vs veh, RFX7 / RFU, GTPBP10 / Fold change vs veh, GTPBP10 / RFU, CNEP1R1 / Fold change vs veh, CNEP1R1 / RFU, BIVM-ERCC5 /// ERCC5 / Fold change vs veh, BIVM-ERCC5 /// ERCC5 / RFU, ILF3 / Fold change vs veh, ILF3 / RFU 11762660_at / Fold change /veh 11762660_at / RFU VCAN (11757783_s_at) / Fold change /veh VCAN (11757783_s_at) / RFU DDX43 (11728927_at) / Fold change /veh DDX43 (11728927_at) / RFU KRT8 (11758188_x_at) / Fold change /veh KRT8 (11758188_x_at) / RFU NKD1 (11759106_at) / Fold change /veh NKD1 (11759106_at) / RFU SRD5A1 (11742802_a_at) / Fold change /veh SRD5A1 (11742802_a_at) / RFU TPSAB1 /// TPSB2 (11721975_s_at) / Fold change /veh TPSAB1 /// TPSB2 (11721975_s_at) / RFU GSTM3 (11746129_a_at) / Fold change /veh GSTM3 (11746129_a_at) / RFU IL23R (11737362_x_at) / Fold change /veh IL23R (11737362_x_at) / RFU TMEM51 (11727254_a_at) / Fold change /veh TMEM51 (11727254_a_at) / RFU PIWIL2 (11732686_x_at) / Fold change /veh PIWIL2 (11732686_x_at) / RFU ORM1 (11744905_x_at) / Fold change /veh ORM1 (11744905_x_at) / RFU CCDC152 (11743942_at) / Fold change /veh CCDC152 (11743942_at) / RFU ECM1 (11717891_a_at) / Fold change /veh ECM1 (11717891_a_at) / RFU IL23R (11748794_a_at) / Fold change /veh IL23R (11748794_a_at) / RFU TNFAIP8L3 (11732012_x_at) / Fold change /veh TNFAIP8L3 (11732012_x_at) / RFU MBOAT4 (11741988_at) / Fold change /veh MBOAT4 (11741988_at) / RFU 11764193_at / Fold change /veh 11764193_at / RFU TMEM53 (11763286_at) / Fold change /veh TMEM53 (11763286_at) / RFU MAGEB2 (11727129_at) / Fold change /veh MAGEB2 (11727129_at) / RFU TMEM200A (11744735_a_at) / Fold change /veh TMEM200A (11744735_a_at) / RFU CCDC152 (11751479_a_at) / Fold change /veh CCDC152 (11751479_a_at) / RFU FAM211A (11726209_a_at) / Fold change /veh FAM211A (11726209_a_at) / RFU RGS16 (11746705_a_at) / Fold change /veh RGS16 (11746705_a_at) / RFU VCAN (11755009_s_at) / Fold change /veh VCAN (11755009_s_at) / RFU RHOB (11743442_s_at) / Fold change /veh RHOB (11743442_s_at) / RFU RGS16 (11720943_a_at) / Fold change /veh RGS16 (11720943_a_at) / RFU RGS16 (11720944_at) / Fold change /veh RGS16 (11720944_at) / RFU, VPS4B / Fold change vs veh, VPS4B / RFU, CREB1 / Fold change vs veh, CREB1 / RFU, DNAJC13 / Fold change vs veh, DNAJC13 / RFU, GNAQ / Fold change vs veh, GNAQ / RFU, CDK5R1 / Fold change vs veh, CDK5R1 / RFU, ZRANB3 / Fold change vs veh, ZRANB3 / RFU, CUL4A / Fold change vs veh, CUL4A / RFU, CCNY / Fold change vs veh, CCNY / RFU, UFL1 / Fold change vs veh, UFL1 / RFU, COG3 / Fold change vs veh, COG3 / RFU, DIAPH2 / Fold change vs veh, DIAPH2 / RFU, SKA2 / Fold change vs veh, SKA2 / RFU, AFF3 / Fold change vs veh, AFF3 / RFU, LMF1 / Fold change vs veh, LMF1 / RFU, IPO11 / Fold change vs veh, IPO11 / RFU, DFFB / Fold change vs veh, DFFB / RFU, FOXP1 / Fold change vs veh, FOXP1 / RFU, CARD8 / Fold change vs veh, CARD8 / RFU, STRN3 / Fold change vs veh, STRN3 / RFU, ADK / Fold change vs veh, ADK / RFU, RASSF2 / Fold change vs veh, RASSF2 / RFU, WIPF1 / Fold change vs veh, WIPF1 / RFU, LARP1B / Fold change vs veh, LARP1B / RFU, RASA1 / Fold change vs veh, RASA1 / RFU, RB1 / Fold change vs veh, RB1 / RFU, PPFIA1 / Fold change vs veh, PPFIA1 / RFU, MAT2A / Fold change vs veh, MAT2A / RFU, CCT5 / Fold change vs veh, CCT5 / RFU, WDR92 / Fold change vs veh, WDR92 / RFU, CUX1 / Fold change vs veh, CUX1 / RFU, TTC7A / Fold change vs veh, TTC7A / RFU, TMEM135 / Fold change vs veh, TMEM135 / RFU, DEPTOR / Fold change vs veh, DEPTOR / RFU, CPM / Fold change vs veh, CPM / RFU, DNAJB6 / Fold change vs veh, DNAJB6 / RFU, CACNA2D3 / Fold change vs veh, CACNA2D3 / RFU, DTX4 / Fold change vs veh, DTX4 / RFU, TFCP2 / Fold change vs veh, TFCP2 / RFU, GMCL1 /// GMCL1P1 / Fold change vs veh, GMCL1 /// GMCL1P1 / RFU, AEBP2 / Fold change vs veh, AEBP2 / RFU, SNHG1 /// SNORD22 /// SNORD25 /// SNORD26 /// SNORD27 /// SNORD28 /// SNORD29 /// SNORD31 / Fold change vs veh, SNHG1 /// SNORD22 /// SNORD25 /// SNORD26 /// SNORD27 /// SNORD28 /// SNORD29 /// SNORD31 / Fold change (Aza/veh), C12orf56 (ProbeSet 11735607_a_at) / Fold change (ACY-1035/veh), C12orf56 (ProbeSet 11735607_a_at) / Fold change (Aza/veh), FGFR1OP (ProbeSet 11751329_s_at) / Fold change (ACY-1035/veh), FGFR1OP (ProbeSet 11751329_s_at) / Fold change (Aza/veh), VPS36 (ProbeSet 11739960_a_at) / Fold change (ACY-1035/veh), VPS36 (ProbeSet 11739960_a_at) / RFU SYPL1 (11715823_x_at) / Fold change /veh SYPL1 (11715823_x_at) / RFU IGFBP7 (11715501_s_at) / Fold change /veh IGFBP7 (11715501_s_at) / RFU REEP3 (11722064_at) / Fold change /veh REEP3 (11722064_at) / RFU IGLL1 (11728026_x_at) / Fold change /veh IGLL1 (11728026_x_at): dose or concentration left out as unconfirmed
Settings: ProbeSet 11716844_s_at; LIST D

## Nc1ncn([C@@H]2O[C@H](CO)[C@@H](O)[C@H]2O)c(=O)n1 [azacitidine]
  RFU, DNAJC13: 111.36 RFU
